Results as given in article PMC9131871, “Impact of Micropolymorphism Outside the Peptide Binding Groove in the Clinically Relevant Allele HLA-C*14 on T Cell Responses in HIV-1 Infection” (Journal of Virology, 2022).

Tests used:
[1] = molecular target: HLA-C*14:02 (Homo sapiens, UniProt P10321, A176E/A330V/A35S/A97T/C350S/D114A/D33S/L171W/L180R/L218V/M285V/M309V/M331V/P208H/Q277E/Q291P/R121W/R243W/S123F/S297R/S48A/T329A/T363A/V319A); test: HLA stabilization assay on RMA-S-C1402 cells; assay type: cell-based; conditions: 100 μM peptide, 26°C 1 h then 37°C 3 h, MAb DT-9 staining, flow cytometry, triplicate assays
Excerpt: (§1) We next sought to confirm the HLA-C*14:02/C*14:03 restriction of the HIV-1 peptides identified by LC-MS/MS. First, we tested their ability to bind to HLA-C*14:02 or HLA-C*14:03 using HLA stabilization assays. Of the 25 HIV-1 peptides, three Env peptides, Env SI8, Env AM11, and Env VM9, are located in variable regions V2 and V3. In addition, Pol AF10, Pol PF8, Pol VWL9, and Env YI9 are located in regions where high sequence variation is reported in the LANL database. Therefore, we excluded these peptides from further analysis. The other 18 peptides were synthesized and tested for binding to HLA-C*14:02/C*14:03 by analyzing their ability to stabilize surface HLA expression on TAP-defective RMA-S cell lines expressing HLA-C*14:02 (RMA-S-C1402) or HLA-C*14:03 (RMA-S-C1403). These RMA-S cell lines express equivalent levels of HLA-C*14:02 and HLA-C*14:03 on the cell surface at 26°C, and surface HLA expression declines to very low levels when the cells are warmed to 37°C in the absence of exogenously added stabilizing peptides (Fig. 2A). Peptide binding was determined by evaluating whether HLA-I expression was stabilized in the presence of 100 μM peptide.
(§2) FIG 2 HLA-C*14:02/14:03 binding of HIV-1 peptides eluted from NL4-3-infected .221-C1402 and .221-C1403 cells as assessed by HLA stabilization assay using RMA-S cell lines. (A) Histogram plots showing surface expression of HLA-C*14:02 or HLA-C*14:03 on RMA-S-C1402 or RMA-S-C1403 cells at 26°C and after cells cultured at 26°C had been warmed to 37°C for 3 h. MFI values of cells cultured at 26°C were 27.4 for HLA-C*14:02 and 28.1 for HLA-C*14:03. MFI values of cells cultured at 37°C for 3 h were 5.0 for HLA-C*14:02 and 6.54 for HLA-C*14:03. (B) Analysis of binding of 14 HIV-1 NL4.3 peptides identified by LC-MS/MS to HLA-C*14:02 (blue) or HLA-C*14:03 (red) as measured in HLA class I stabilization assays using RMA-S-C1402 or RMA-S-C1403 cells. (C) Analysis of binding of 9 additional variant peptides to HLA-C*14:02 (blue) or C*14:03 (red). For panels B and C, peptides were tested at a concentration of 100 μM. Results are plotted as percent surface HLA-I expression relative to that at 26°C, calculated as the ratio of the MFI of peptide-pulsed RMA-S-C1402 or RMA-S-C1403 cells to that of control (non-peptide-pulsed) cells kept at 26°C, multiplied by 100. Means and standard deviations (SDs) from triplicate assays are shown. Statistical analyses were performed by unpaired t test. The P values were corrected for multiple testing. *, P < 0.05 and q < 0.05; **, P < 0.01 and q < 0.03; ***, P < 0.001 and q < 0.005.
(§3) The relative affinity of peptide binding to HLA-C*14:02 and -C*14:03 was examined using RMA-S-C1402 and RMA-S-C1403 cells as previously described ([15]). Briefly, RMA-S cells were cultured at 26°C for 16 h, pulsed with peptides at 26°C for 1 h, and subsequently incubated at 37°C for 3 h. Staining of cell surface HLA-C molecules was performed with the HLA-C-reactive monoclonal antibody (MAb) DT-9 ([48]), a gift from Mary Carrington, NIH, and fluorescein isothiocyanate (FITC)-conjugated sheep anti-mouse IgG (Jackson ImmunoResearch). Staining data were acquired on a FACSCanto II instrument (BD Biosciences) and analyzed using FlowJo 10.7.1 software. Relative HLA expression was calculated as the ratio of the mean fluorescence intensity (MFI) of peptide-pulsed RMA-S-C1402 cells or RMA-S-C1403 cells to that of control (non-peptide-pulsed) cells kept at 26°C, multiplied by 100 to express the values for peptide-pulsed cells as a percentage of that for the control cells at 26°C.

[2] = molecular target: HLA-C*14:03 (Homo sapiens, UniProt P10321, A176E/A330V/A35S/A97T/C350S/D114A/D33S/L171W/L180R/L218V/M285V/M309V/M331V/P208H/Q277E/Q291P/R121W/R243W/R45H/S123F/S297R/S48A/T329A/T363A/V319A); test: HLA stabilization assay on RMA-S-C1403 cells; assay type: cell-based; conditions: 100 μM peptide, 26°C 1 h then 37°C 3 h, MAb DT-9 staining, flow cytometry, triplicate assays
Excerpt: as §1, §2, §3

[3] = system: T cells of a volunteer enrolled in an HIV vaccine trial; conditions: cited from earlier work
Excerpt: We identified 6 HLA-C*14:02/C*14:03 epitopes in the present study. Five of these peptides were detected by LC-MS/MS in HLA-I eluates from both HLA-C*14:02^+ and HLA-C*14:03^+ .221 cells infected with HIV-1, and T cells specific for all 6 epitopes effectively recognized both HIV-1-infected HLA-C*14:02^+ and HLA-C*14:03^+ .221 cells. […] Responses to two of these peptides, Gag LY9 and Nef YT9, were identified in a previous study that analyzed T cell responses ...

Sequence	binding to HLA-C*14:02 (stabilization of surface HLA expression) [1]	binding to HLA-C*14:03 (stabilization of surface HLA expression) [2]	HLA-C*14-restricted HIV-1 epitope status [3]
FHHMAREK [NefFL8-4M8K, variant of Nef FL8, FHHMAREK, present in Japanese cohort viruses]	detectable binding to the HLA-C*14 molecules with the exception of NefFL8-4M8K	detectable binding to the HLA-C*14 molecules with the exception of NefFL8-4M8K	–
LYNTVATL [Gag LL8-5V7T]	–	–	identified as an HLA-C*14-restricted HIV-1 epitope
